Source: BigSolDB 2.1

c1ccc(-c2ccc(C(c3ccccc3)n3ccnc3)cc2)cc1 (stereo unspecified)
Details	solubility (mole fraction)
in DMF, 283.17 K	0.0149
in DMF, 288.13 K	0.0177
in DMF, 293.15 K	0.0208
in DMF, 298.18 K	0.0245
in DMF, 303.14 K	0.029
in DMF, 308.09 K	0.0341
in DMF, 313.25 K	0.0403
in DMF, 318.13 K	0.0482
in DMF, 323.18 K	0.0565
in acetonitrile, 283.24 K	0.00109
in acetonitrile, 288.17 K	0.0014
in acetonitrile, 293.15 K	0.00176
in acetonitrile, 298.14 K	0.00221
in acetonitrile, 303.08 K	0.00277
in acetonitrile, 308.13 K	0.00347
in acetonitrile, 313.16 K	0.00439
in acetonitrile, 318.14 K	0.00541
in acetonitrile, 323.11 K	0.00682
in ethanol, 283.15 K	0.0028
in ethanol, 288.18 K	0.00342
in ethanol, 293.13 K	0.00407
in ethanol, 298.15 K	0.00512
in ethanol, 303.17 K	0.0064
in ethanol, 308.14 K	0.00782
in ethanol, 313.15 K	0.00965
in ethanol, 318.2 K	0.0122
in ethanol, 323.14 K	0.0151
in ethyl acetate, 283.16 K	0.00238
in ethyl acetate, 288.14 K	0.00305
in ethyl acetate, 293.17 K	0.00385
in ethyl acetate, 298.13 K	0.00471
in ethyl acetate, 303.18 K	0.00579
in ethyl acetate, 308.12 K	0.00724
in ethyl acetate, 313.1 K	0.00892
in ethyl acetate, 318.13 K	0.0113
in ethyl acetate, 323.1 K	0.0139
in isobutanol, 283.14 K	0.00308
in isobutanol, 288.17 K	0.0041
in isobutanol, 293.13 K	0.00528
in isobutanol, 298.12 K	0.00659
in isobutanol, 303.16 K	0.00865
in isobutanol, 308.15 K	0.0114
in isobutanol, 313.19 K	0.0148
in isobutanol, 318.14 K	0.0197
in isobutanol, 323.16 K	0.0256
in isopentanol, 283.13 K	0.00402
in isopentanol, 288.17 K	0.00512
in isopentanol, 293.07 K	0.00652
in isopentanol, 298.14 K	0.00831
in isopentanol, 303.17 K	0.0105
in isopentanol, 308.13 K	0.0133
in isopentanol, 313.18 K	0.0171
in isopentanol, 318.15 K	0.0216
in isopentanol, 323.24 K	0.0281
in isopropanol, 283.16 K	0.00137
in isopropanol, 288.14 K	0.00173
in isopropanol, 293.15 K	0.0022
in isopropanol, 298.18 K	0.00285
in isopropanol, 303.17 K	0.00362
in isopropanol, 308.13 K	0.00472
in isopropanol, 313.16 K	0.00605
in isopropanol, 318.1 K	0.00802
in isopropanol, 323.14 K	0.0105
in methyl acetate, 283.12 K	0.00263
in methyl acetate, 288.14 K	0.00334
in methyl acetate, 293.15 K	0.00413
in methyl acetate, 298.19 K	0.00509
in methyl acetate, 303.17 K	0.00618
in methyl acetate, 308.14 K	0.0076
in methyl acetate, 313.18 K	0.00926
in methyl acetate, 318.15 K	0.0111
in methyl acetate, 323.13 K	0.013
in n-butanol, 283.15 K	0.00386
in n-butanol, 288.19 K	0.00509
in n-butanol, 293.16 K	0.00645
in n-butanol, 298.14 K	0.00808
in n-butanol, 303.15 K	0.01
in n-butanol, 308.23 K	0.0132
in n-butanol, 313.11 K	0.0163
in n-butanol, 318.18 K	0.0203
in n-butanol, 323.14 K	0.0257
in n-butyl acetate, 283.13 K	0.00191
in n-butyl acetate, 288.16 K	0.00233
in n-butyl acetate, 293.14 K	0.00285
in n-butyl acetate, 298.19 K	0.00345
in n-butyl acetate, 303.15 K	0.00434
in n-butyl acetate, 308.18 K	0.00527
in n-butyl acetate, 313.14 K	0.00676
in n-butyl acetate, 318.13 K	0.00835
in n-butyl acetate, 323.15 K	0.0109
in n-pentanol, 283.1 K	0.00445
in n-pentanol, 288.13 K	0.00581
in n-pentanol, 293.15 K	0.00739
in n-pentanol, 298.19 K	0.00941
in n-pentanol, 303.16 K	0.0117
in n-pentanol, 308.14 K	0.0149
in n-pentanol, 313.17 K	0.0184
in n-pentanol, 318.16 K	0.0234
in n-pentanol, 323.12 K	0.029
in n-propanol, 283.12 K	0.00381
in n-propanol, 288.14 K	0.00458
in n-propanol, 293.15 K	0.00585
in n-propanol, 298.18 K	0.00719
in n-propanol, 303.16 K	0.00909
in n-propanol, 308.21 K	0.0115
in n-propanol, 313.16 K	0.0143
in n-propanol, 318.19 K	0.0172
in n-propanol, 323.17 K	0.0211
in n-propyl acetate, 283.15 K	0.00215
in n-propyl acetate, 288.16 K	0.00261
in n-propyl acetate, 293.09 K	0.00342
in n-propyl acetate, 298.14 K	0.00433
in n-propyl acetate, 303.15 K	0.00541
in n-propyl acetate, 308.17 K	0.00683
in n-propyl acetate, 313.11 K	0.0087
in n-propyl acetate, 318.16 K	0.0106
in n-propyl acetate, 323.1 K	0.0131
in sec-butanol, 283.13 K	0.00212
in sec-butanol, 288.16 K	0.00286
in sec-butanol, 293.14 K	0.0037
in sec-butanol, 298.17 K	0.00503
in sec-butanol, 303.15 K	0.00647
in sec-butanol, 308.12 K	0.00841
in sec-butanol, 313.19 K	0.011
in sec-butanol, 318.16 K	0.0145
in sec-butanol, 323.15 K	0.0183
